The target of one test is Cdk4/CyclinD1 (Homo sapiens (Human), UniProt P11802). In words: Cdk4 kinase inhibition assay with recombinant Cdk4/CyclinD1, Rb substrate, [33P]-ATP filter plate. The following applies: 25 μM ATP, read-out: Cdk 4 IC50. It is filed as biochemical. Put shortly:
(§1)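 Recombinant Cdk4/CyclinD1 or Cdk6/CyclinD3 phosphorylated Rb protein with [33P]-ATP for 1 h at room temperature. Protein was TCA-precipitated on filter plates and bound radioactivity counted. IC50 by nonlinear regression.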

The target of a further test is Cdk6/CyclinD3 (Homo sapiens (Human), UniProt Q00534). Put plainly: Cdk6 kinase inhibition assay with recombinant Cdk6/CyclinD3, Rb substrate, [33P]-ATP filter plate. Format: biochemical. The following applies: 25 μM ATP, read-out: Cdk 6 IC50. Put shortly:
as §1

Structures are written as SMILES. pIC50: −log10 of the molar value.

This passage reports IC50 results from US8841312B2, “Fused pyridine, pyrimidine and triazine compounds as cell cycle inhibitors” (Amgen Inc., priority 2007, dated 2014).

Chain of Cdk4/CyclinD1 (P11802 whole entry): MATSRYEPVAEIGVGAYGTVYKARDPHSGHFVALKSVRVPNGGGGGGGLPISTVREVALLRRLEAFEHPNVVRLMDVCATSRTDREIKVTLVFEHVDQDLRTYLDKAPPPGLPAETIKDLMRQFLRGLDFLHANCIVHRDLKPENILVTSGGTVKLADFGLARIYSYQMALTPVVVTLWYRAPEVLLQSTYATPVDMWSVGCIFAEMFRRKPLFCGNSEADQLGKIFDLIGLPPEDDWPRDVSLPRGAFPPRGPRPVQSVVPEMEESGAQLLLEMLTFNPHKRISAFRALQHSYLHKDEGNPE
Chain of Cdk4/CyclinD1 (P24385 whole entry partner): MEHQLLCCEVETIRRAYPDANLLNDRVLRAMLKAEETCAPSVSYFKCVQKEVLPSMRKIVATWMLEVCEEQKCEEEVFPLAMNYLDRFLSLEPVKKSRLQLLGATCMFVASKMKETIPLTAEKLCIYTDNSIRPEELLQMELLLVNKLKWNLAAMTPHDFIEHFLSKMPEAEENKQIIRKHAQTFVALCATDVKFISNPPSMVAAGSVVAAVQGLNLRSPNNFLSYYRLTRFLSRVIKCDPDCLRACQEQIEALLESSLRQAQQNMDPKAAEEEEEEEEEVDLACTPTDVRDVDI
Chain of Cdk6/CyclinD3 (Q00534 whole entry): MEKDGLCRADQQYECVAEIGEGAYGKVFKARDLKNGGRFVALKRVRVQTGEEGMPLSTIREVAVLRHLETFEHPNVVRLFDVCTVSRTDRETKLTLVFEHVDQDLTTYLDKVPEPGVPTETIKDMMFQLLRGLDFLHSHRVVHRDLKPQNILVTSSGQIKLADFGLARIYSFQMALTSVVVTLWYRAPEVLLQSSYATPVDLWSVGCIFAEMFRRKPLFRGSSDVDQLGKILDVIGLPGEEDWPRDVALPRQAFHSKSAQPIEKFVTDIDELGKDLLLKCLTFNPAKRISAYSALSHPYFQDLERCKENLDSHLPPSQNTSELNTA
Chain of Cdk6/CyclinD3 (P30281 whole entry partner): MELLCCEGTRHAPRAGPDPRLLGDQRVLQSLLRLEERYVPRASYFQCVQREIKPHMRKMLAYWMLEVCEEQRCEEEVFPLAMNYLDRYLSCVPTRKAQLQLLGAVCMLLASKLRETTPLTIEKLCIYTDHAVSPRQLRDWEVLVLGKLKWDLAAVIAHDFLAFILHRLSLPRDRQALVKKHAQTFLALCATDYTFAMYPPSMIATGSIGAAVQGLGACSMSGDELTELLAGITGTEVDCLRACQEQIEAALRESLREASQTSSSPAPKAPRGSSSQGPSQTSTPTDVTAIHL

Broadly, the pIC50 is the negative decadic logarithm of the IC50, by convention in mol/L. With `O=S1(=O)CCC(c2ccc(Nc3ncc4c5ccncc5n(C5CCCC5)c4n3)nc2)CC1` [Example 270, 9-Cyclopentyl-N-(5-(1,1-dioxidotetrahydro-2H-thiopyran-4-yl)-2-pyridinyl)-9H-pyrido[4′,3′:4,5]pyrrolo[2,3-d]pyrimidin-2-amine], the results for the pIC50 on Cdk4/CyclinD1 and at Cdk6/CyclinD3 were 7.40 and 7.46, respectively.
For `O=S1(=O)CC=C(c2ccc(Nc3ncc4c5ccnc(F)c5n(C5CCCC5)c4n3)nc2)CC1` [Example 271, 9-Cyclopentyl-N-(5-(1,1-dioxido-3,6-dihydro-2H-thiopyran-4-yl)-2-pyridinyl)-8-fluoro-9H-pyrido[4′,3′:4,5]pyrrolo[2,3-d]pyrimidin-2-amine], in that order: 7.80 and 7.80.
The like results for `NC1[C@H]2CN(c3ccc(Nc4ncc5c6ccncc6n(C6CCCC6)c5n4)nn3)C[C@@H]12` (stereo partly drawn) [Example 272, N-(6-((1R,5S)-6-amino-3-azabicyclo[310]hex-3-yl)-3-pyridazinyl)-9-cyclopentyl-9H-pyrido[4′,3′:4,5]pyrrolo[2,3-d]pyrimidin-2-amine] were, in that order, 7.57 and 7.00.
For the molecule `CN(C)[C@H]1CCN(c2ccc(Nc3ncc4c5ccncc5n(C5CCCC5)c4n3)nc2)C1` [Example 288], the negative logarithm of the IC50 (pIC50) was 7.85 on Cdk4/CyclinD1 and 7.40 on Cdk6/CyclinD3.
In the case of `CN(C)[C@@H]1CCN(c2ccc(Nc3ncc4c5ccncc5n(C5CCCC5)c4n3)nc2)C1` [Example 289], the negative logarithm of the IC50 (pIC50) at Cdk4/CyclinD1 is 8.14; on Cdk6/CyclinD3, 7.40.
As to `CN(C)CCCN(C)c1ccc(Nc2ncc3c4ccncc4n(C4CCCC4)c3n2)nn1` [Example 290], the negative-log IC50 (pIC50) was 7.46 on Cdk4/CyclinD1 and 7.07 at Cdk6/CyclinD3.
The like results for `OCCNc1ccc(Nc2ncc3c4ccncc4n(C4CCCC4)c3n2)nn1` [Example 292] were, in that order, 8.31 and 7.79.
In the case of `C[C@@H](O)CNc1ccc(Nc2ncc3c4ccncc4n(C4CCCC4)c3n2)nn1` [Example 293], the negative logarithm of the IC50 (pIC50) on Cdk4/CyclinD1 is 8.34; on Cdk6/CyclinD3, 7.80.
As to `C[C@H](O)CNc1ccc(Nc2ncc3c4ccncc4n(C4CCCC4)c3n2)nn1` [Example 294], the negative logarithm of the IC50 (pIC50) was 8.23 on Cdk4/CyclinD1 and 7.59 on Cdk6/CyclinD3.
`C[C@H](CO)Nc1ccc(Nc2ncc3c4ccncc4n(C4CCCC4)c3n2)nn1` [Example 295]: the pIC50 at Cdk4/CyclinD1 is 8.17; at Cdk6/CyclinD3 it was 7.47.
The like results for `C[C@@H](CO)Nc1ccc(Nc2ncc3c4ccncc4n(C4CCCC4)c3n2)nn1` [Example 296] were, in that order, 8.26 and 7.85.
`OCCCNc1ccc(Nc2ncc3c4ccncc4n(C4CCCC4)c3n2)nn1` [Example 297]: the pIC50 at Cdk4/CyclinD1 was 8.85; at Cdk6/CyclinD3 it was 7.89.
For `CN1CCN(c2ccc(Nc3ncc4c5ccccc5n(C5CCCC5)c4n3)nc2)CC1` [Example 298], in that order: 7.40 and 8.10.
Regarding `CC1(C)CN(c2ccc(Nc3ncc4c5ccccc5n(C5CCCC5)c4n3)nn2)CCN1` [Example 299], the negative-log IC50 (pIC50) on Cdk4/CyclinD1 is 7.22; at Cdk6/CyclinD3 it was 7.47.
For `CN(C)C1CCN(c2ccc(Nc3ncc4c5ccccc5n(C5CCCC5)c4n3)nn2)CC1` [Example 300], in that order: 7.66 and 7.32.
For `CN1CCN(c2ccc(Nc3ncc4c5ccccc5n(C5CCCC5)c4n3)nn2)CC1` [Example 301], in that order: 7.51 and 7.66.
For the molecule `C[C@H]1CN(c2ccc(Nc3ncc4c5ccccc5n(C5CCCC5)c4n3)nn2)CCN1` [Example 302], the pIC50 at Cdk4/CyclinD1 was 7.33; at Cdk6/CyclinD3, 7.64.
In the case of `CC1CN(c2ccc(Nc3ncc4c5ccccc5n(C5CCCC5)c4n3)nc2)CC(C)N1` (stereo not shown) [Example 303], the values for the pIC50 on Cdk4/CyclinD1 and at Cdk6/CyclinD3 were 7.51 and 7.52, respectively.
Regarding `O[C@@H]1CCN(c2ccc(Nc3ncc4c5ccccc5n(C5CCCC5)c4n3)nc2)C1` [Example 304], the negative-log IC50 (pIC50) was 7.34 on Cdk4/CyclinD1 and 7.57 at Cdk6/CyclinD3.
Take `O[C@H]1CCN(c2ccc(Nc3ncc4c5ccccc5n(C5CCCC5)c4n3)nc2)C1` [Example 305]: the figures for the negative logarithm of the IC50 (pIC50) on Cdk4/CyclinD1 and on Cdk6/CyclinD3 were 6.83 and 6.95, respectively.
As for `CC1CN(c2ccc(Nc3ncc4c5ccccc5n(C5CCCC5)c4n3)nn2)CC(C)N1` (stereo not shown) [Example 306], the pIC50 on Cdk4/CyclinD1 was 7.89; on Cdk6/CyclinD3, 7.41.
Regarding `c1ccc2c(c1)c1cnc(Nc3ccc(N4CCNCC4)nn3)nc1n2C1CCCC1` [Example 307], the negative-log IC50 (pIC50) on Cdk4/CyclinD1 was 7.96; at Cdk6/CyclinD3, 8.06.
For the molecule `NC1CCN(c2ccc(Nc3ncc4c5ccccc5n(C5CCCC5)c4n3)nn2)CC1` [Example 308], the pIC50 at Cdk4/CyclinD1 is 7.96; on Cdk6/CyclinD3, 8.10.
For `CN(C)C1CCN(c2ccc(Nc3ncc4c5ccccc5n(C5CCCC5)c4n3)nc2)CC1` [Example 309], in that order: 7.96 and 7.92.
The like results for `CNC1CCN(c2ccc(Nc3ncc4c5ccnc(F)c5n(C5CCCC5)c4n3)nc2)CC1` [Example 310] were, in that order, 8.30 and 7.89.
The like results for `O[C@H]1CCN(c2ccc(Nc3ncc4c5ccnc(F)c5n(C5CCCC5)c4n3)nn2)C1` [Example 311] were, in that order, 8.07 and 7.62.
For the molecule `COCCn1c2cnccc2c2cnc(Nc3ccc(N4CCNCC4)cn3)nc21` [Example 312], the values for the pIC50 on Cdk4/CyclinD1 and on Cdk6/CyclinD3 were 6.43 and 6.10, respectively.
Take `COCCn1c2cnccc2c2cnc(Nc3ccc(N4CCNCC4)nn3)nc21` [Example 313]: the pIC50 on Cdk4/CyclinD1 was 6.47; at Cdk6/CyclinD3 it was 6.40.
Regarding `COCCn1c2cnccc2c2cnc(Nc3ccc(N4CCC(N(C)C)CC4)cn3)nc21` [Example 314], the pIC50 on Cdk4/CyclinD1 is 6.42; at Cdk6/CyclinD3, 5.82.
For `CC[C@@H](C)n1c2cnccc2c2cnc(Nc3ccc(N4CCC(N(C)C)CC4)nn3)nc21` [Example 316], in that order: 7.44 and 7.23.
With `CC[C@@H](C)n1c2cnccc2c2cnc(Nc3ccc(N4CCN[C@@H](C)C4)nn3)nc21` [Example 317], the pIC50 at Cdk4/CyclinD1 is 7.92; on Cdk6/CyclinD3, 7.68.
With `CC[C@@H](C)n1c2cnccc2c2cnc(Nc3ccc(N4CCC(NC)CC4)nn3)nc21` [Example 318], the pIC50 on Cdk4/CyclinD1 was 8.54; at Cdk6/CyclinD3, 7.57.
`CC[C@@H](C)n1c2cnccc2c2cnc(Nc3ccc(N4CC[C@@H](O)C4)nn3)nc21` [Example 319]: the negative-log IC50 (pIC50) at Cdk4/CyclinD1 is 7.66; at Cdk6/CyclinD3, 7.31.
Regarding `CC[C@@H](C)n1c2cnccc2c2cnc(Nc3ccc(N4CCNCC4)cn3)nc21` [Example 320], the negative-log IC50 (pIC50) was 8.44 at Cdk4/CyclinD1 and 7.96 at Cdk6/CyclinD3.
As to `CC[C@@H](C)n1c2cnccc2c2cnc(Nc3ccc(N4CCN[C@@H](C)C4)cn3)nc21` [Example 321], the values for the negative logarithm of the IC50 (pIC50) on Cdk4/CyclinD1 and on Cdk6/CyclinD3 were 8.15 and 7.96, respectively.
As to `CC[C@@H](C)n1c2cnccc2c2cnc(Nc3ccc(N4CC[C@@H](O)C4)cn3)nc21` [Example 322], the negative logarithm of the IC50 (pIC50) is 7.82 at Cdk4/CyclinD1 and 7.30 on Cdk6/CyclinD3.
As for `CC[C@@H](C)n1c2cnccc2c2cnc(Nc3ccc(N4CCNCC4)nn3)nc21` [Example 323], the negative-log IC50 (pIC50) on Cdk4/CyclinD1 is 8.02; on Cdk6/CyclinD3 it was 7.64.
The like results for `CC[C@@H](C)n1c2cnccc2c2cnc(Nc3ccc(N4CCNC(C)(C)C4)nn3)nc21` [Example 324] were, in that order, 7.96 and 7.70.
As to `CC[C@@H](C)n1c2cnccc2c2cnc(Nc3ccc(N4CCC(NC)CC4)cn3)nc21` [Example 325], the values for the pIC50 on Cdk4/CyclinD1 and at Cdk6/CyclinD3 were 7.96 and 7.38, respectively.
`CN(C)C1CCN(c2ccc(Nc3ncc4c5ccncc5n(C5CCC5)c4n3)nc2)CC1` [Example 341]: the results for the pIC50 on Cdk4/CyclinD1 and at Cdk6/CyclinD3 were 7.68 and 7.80, respectively.
Take `CC[C@@H](C)n1c2cnccc2c2cnc(Nc3ccc(N4CCNC(C)(C)C4)cn3)nc21` [Example 342]: the pIC50 was 7.06 on Cdk4/CyclinD1 and 7.11 at Cdk6/CyclinD3.
For the molecule `CC1(C)CN(c2ccc(Nc3ncc4c5ccncc5n(C5CCC5)c4n3)nc2)CCN1` [Example 343], the negative-log IC50 (pIC50) at Cdk4/CyclinD1 is 7.36; at Cdk6/CyclinD3, 7.55.
On to `C[C@H]1CN(c2ccc(Nc3ncc4c5ccncc5n(C5CCC5)c4n3)nc2)CCN1` [Example 344], for which the pIC50 at Cdk4/CyclinD1 was 7.80; at Cdk6/CyclinD3, 8.00.
For `CNC1CCN(c2ccc(Nc3ncc4c5ccncc5n(C5CCC5)c4n3)nc2)CC1` [Example 345], the pIC50 on Cdk4/CyclinD1 was 7.68; at Cdk6/CyclinD3, 7.82.
For `c1cc2c3cnc(Nc4ccc(N5CCNCC5)nn4)nc3n(C3CCC3)c2cn1` [Example 346], the negative-log IC50 (pIC50) at Cdk4/CyclinD1 is 7.27; at Cdk6/CyclinD3, 7.80.
The like results for `CN(C)C1CCN(c2ccc(Nc3ncc4c5ccncc5n(C5CCC5)c4n3)nn2)CC1` [Example 347] were, in that order, 7.57 and 7.57.
For `CC1(C)CN(c2ccc(Nc3ncc4c5ccncc5n(C5CCC5)c4n3)nn2)CCN1` [Example 348], the pIC50 on Cdk4/CyclinD1 was 7.77; on Cdk6/CyclinD3 it was 7.92.
The like results for `CN(C)C1CCN(c2ccc(Nc3ncc4c5ccncc5n([C@@H]5CCNC5)c4n3)nc2)CC1` [Example 349] were, in that order, 6.84 and 6.47.
As to `CN(C)C1CCN(c2ccc(Nc3ncc4c5ccncc5n(CCCO)c4n3)nc2)CC1` [Example 350], the figures for the pIC50 at Cdk4/CyclinD1 and at Cdk6/CyclinD3 were 7.13 and 6.99, respectively.
`C[C@H]1CN(c2ccc(Nc3ncc4c5ccncc5n(CCCO)c4n3)nc2)CCN1` [Example 351]: the pIC50 at Cdk4/CyclinD1 is 7.10; on Cdk6/CyclinD3 it was 6.75.
As for `OCCCn1c2cnccc2c2cnc(Nc3ccc(N4CCNCC4)nn3)nc21` [Example 352], the pIC50 is 6.84 at Cdk4/CyclinD1 and 7.28 on Cdk6/CyclinD3.
As to `OCCCn1c2cnccc2c2cnc(Nc3ccc(N4CC[C@@H](O)C4)nn3)nc21` [Example 353], the negative-log IC50 (pIC50) on Cdk4/CyclinD1 was 7.05; at Cdk6/CyclinD3, 6.99.
Consider `CN(C)C1CCN(c2ccc(Nc3ncc4c5ccncc5n([C@H]5CCC[C@H]5O)c4n3)nc2)CC1` [Example 354], for which the negative logarithm of the IC50 (pIC50) at Cdk4/CyclinD1 is 6.24; at Cdk6/CyclinD3, 6.08.
